Data reported in publication PMC11313193, “Which Constituents Determine the Antioxidant Activity and Cytotoxicity of Garlic? Role of Organosulfur Compounds and Phenolics” (International Journal of Molecular Sciences, 2024).

Columns and labels:
[1] = ABTS^● decolorization assay; conditions: 30 min incubation at room temperature, absorbance at 734 nm
[2] = DPPH^● decolorization assay; conditions: 30 min at ambient temperature in the dark, absorbance at 517 nm
Procedure, shortened: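 Increasing amounts of compound react with 0.3 mM DPPH radical in methanol for 30 min at ambient temperature in the dark, read at 517 nm.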

[3] = Ferric reducing antioxidant power (FRAP) assay; conditions: 30 min at ambient temperature, pH 3.6, absorbance at 593 nm
Procedure, shortened: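 Compounds were incubated 30 min at ambient temperature with FRAP reagent (0.3 M acetate buffer pH 3.6, TPTZ in HCl, FeCl3), and Fe2+-TPTZ absorbance was read at 593 nm. Activity was the ratio of the absorbance-vs-concentration slope to that of Trolox, expressed as mol Trolox equivalents per mol compound.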

[4] = test system: SKOV-3 ovarian cancer cells; experiment: Cytotoxicity (Neutral Red), SKOV-3 cells; format: cell-based, human; conditions: 24 h exposure
Procedure, shortened: (§1)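 Cells seeded 1 × 10^4 (SKOV-3, MRC-5) or 1.5 × 10^4 (PEO1) per well, grown 24 h, then exposed to compound for 24 h at 37 °C, 5% CO2 (≤0.02% DMSO); untreated cells as control. Viability by Neutral Red uptake (1 h), dye extracted with water/ethanol/acetic acid, absorbance at 540 nm against 620 nm.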

[5] = test system: PEO1 ovarian cancer cells; experiment: Cytotoxicity (Neutral Red), PEO1 cells; format: cell-based, human; conditions: 24 h exposure
Procedure, shortened: as §1

MRC-5 fibroblasts = experiment: Cytotoxicity (Neutral Red), MRC-5 fibroblasts; format: cell-based, human; conditions: 24 h exposure
Procedure, shortened: as §1

[6] = design: method as in PMID 17312965; conditions: cited from earlier work
[7] = test system: microsomal lipid peroxidation; design: method as in PMID 16822206; conditions: cited from earlier work
[8] = test system: cervical squamous carcinoma SiHa cells; design: method as in PMID 30783417; conditions: 50 nM, 24 h exposure; cited from earlier work
[9] = test system: gastric carcinoma AGS cells; design: method as in PMID 15911108; conditions: 24 h exposure, cited from earlier work
[10] = test system: MDA-MB-231 breast cancer cells; design: method as in PMID 34626309; conditions: 24 h exposure, cited from earlier work
[11] = test system: MCF-7 breast cancer cells; design: method as in PMID 34626309; conditions: 24 h exposure, cited from earlier work
SKOV-3 cells = test system: SKOV-3 cells; design: method as in PMID 25097657; conditions: 24 h exposure, cited from earlier work
U251 glioma cells = test system: U251 glioma cells; design: method as in PMID 29436625; conditions: 24 h exposure, cited from earlier work
[12] = test system: U87MG human glioblastoma cells; design: method as in PMID 22552443; conditions: 24 h exposure, cited from earlier work
[13] = test system: SGC7901 human gastric adenocarcinoma cells; design: method as in PMID 21042755; conditions: 120 μg/mL (i.e., ca. 0.74 mM), 24 h exposure; cited from earlier work
[14] = test system: breast cancer MCF-7 cells; design: method as in PMID 32286702; conditions: 24 h exposure; read-out: Concentration lowering viability of MCF-7 cells to 50%; cited from earlier work
[15] = test system: breast cancer HCC-70 cells; design: method as in PMID 32286702; conditions: 24 h exposure; read-out: Concentration lowering viability of HCC-70 cells to 50%; cited from earlier work
[16] = in the concentration range studied

Structure (SMILES): C=CCS[S+]([O-])CC=C (stereo not drawn) [Allicin, S-(prop-2-en-1-yl)prop-2-ene-1-sulfinothioate]
- Antioxidant activity, ABTS^● Decolorization [1]: −0.038 ± 0.020 mol Trolox equivalents (TE)/mol compound
- Antioxidant activity, DPPH^● Decolorization [2]: −0.023 ± 0.009 mol Trolox equivalents (TE)/mol compound
- Antioxidant activity, FRAP [3]: −0.0014 ± 0.0016 mol Trolox equivalents (TE)/mol compound
- IC50 ([4]; Homo sapiens, SK-OV-3, Neutral Red, read-out: IC50 SKOV-3): 236 µM
- Effect on viability of SKOV-3 cells [4, 16]: did not significantly lower the viability
- IC50 ([5]; Homo sapiens, PEO1, Neutral Red, read-out: IC50 PEO1): 282 µM
- Effect on viability of PEO1 cells [5, 16]: did not significantly lower the viability
- Concentration at which viability of MRC-5 cells was lowered (MRC-5 fibroblasts; p < 0.05): 100 µM
- IC50 (MRC-5 fibroblasts; Homo sapiens, MRC5, Neutral Red, read-out: IC50 MRC-5): 120 µM
- Reaction rate constant with cumene peroxyl radicals [6]: 2600 M⁻¹ s⁻¹
- Termination of lipid peroxidation / prevention of induced microsomal lipid peroxidation [7]: ineffective
- SiHa cell viability (decreased to) [8]: ca. 60%
- IC50 ([9]; converted from μg/mL, read-out: Concentration diminishing survival of AGS cells to ca. 50%): ~62 µM
- Concentration diminishing survival of AGS cells to ca. 50% [9]: 10 µg/mL
- IC50 ([10]; converted from μg/mL, read-out: Concentration lowering survival of MDA-MB-231 cells by 50%): ~111 µM
- Concentration lowering survival of MDA-MB-231 cells by 50% [10]: about 18 μg/mL
- IC50 ([11]; converted from μg/mL, read-out: Concentration lowering survival of MCF-7 cells by 50%): ~43 µM
- Concentration lowering survival of MCF-7 cells by 50% [11]: about 7 μg/mL
- IC50 (SKOV-3 cells; converted from μg/mL, read-out: Concentration reducing viability of SKOV-3 cells to 50%): 430 to 490 µM
- Concentration reducing viability of SKOV-3 cells to 50% (SKOV-3 cells): 70 to 80 µg/mL
- IC50 (U251 glioma cells; converted from μg/mL, read-out: Concentration reducing viability of U251 glioma cells to 50%): 247 µM
- Concentration reducing viability of U251 glioma cells to 50% (U251 glioma cells): ca. 40 μg/mL
- IC50 ([12]; converted, read-out: Concentration reducing viability of U87MG glioblastoma cells to 50%): 550 µM
- Concentration reducing viability of U87MG glioblastoma cells to 50% [12]: ca. 90 /mL μg
- Decrease in the survival of SGC7901 cells [13]: ca. 25%
- IC50 [14]: ~15 µM
- IC50 [15]: ~10 µM
